Test results: patent US5030760A, “Tetrahydrophthalimides, and their production and use” (Sumitomo Chemical Company, Ltd., priority 1981, dated 1991)

Key:
slender spikerush = assay: Test Example 7, flooded paddy pot dripping, herbicidal activity; format: in vivo, Eleocharis acicularis; details: 3 weeks; note: ranges in brackets are in %
Experimental: (§1) The application of the tetrahydrophthalimides (I) as herbicides will be illustratively shown in the following Examples wherein the phytotoxicity to cultivated plants and the herbicidal activity on weeds were evaluated as follows: the aerial parts of the test plants were cut off and weighed (fresh weight); the percentage of the fresh weight of the treated plant to that of the untreated plant was calculated with the latter fresh weight taken as 100; and the crop damage and the herbicidal activity were evaluated by the standard given in the table below. The rating values of phytotoxicity, 0 and 1, and those of herbicidal effect, 5 and 4, are generally regarded as satisfactory to protect cultivated plants and control weeds, respectively. The rating values in the paddy field test alone were calculated from the dry weight of the test plants.
(§2) Wagner's pots (1/5000 are) were filled with paddy field soil and water was poured therein to make a flooded condition. Rice seedlings of the 3-leaf stage were transplanted and tubers of slender spikerush and arrowhead and the seeds of barnyardgrass, monochoria and broad-leaved weed were sowed therein and grown for 5 days. When germination occurs, a designed amount of the test compound formulated into an emulsifiable concentrate according to Preparation Example 2 was applied to the pots by dripping. The test plants were grown for a further 3 weeks, and herbicidal activity and phytotoxicity were examined. The herbicidal activity was evaluated in figures ranging from 0 to 5. The phytotoxicity to the crop plants was also indicated on the same standard as that of the herbicidal activity.

corn [1] = assay: Test Example 2, field foliar treatment, phytotoxicity to corn; format: in vivo; details: 3 weeks; note: ranges in brackets are in %
Experimental: as §1
(§3) Seeds of corn and broad-leaved weeds such as cocklebur, common purslane and tall morningglory were sown in the field as previously laid up in ridges, each ridge having an upper width of 1 m. At the time when the corn grew up to the 6-leaf stage and the broad-leaved weeds up to 2 to 5-leaf stages, a designed amount of the test compound formulated into an emulsifiable concentrate according to Preparation Example 2 and dispersed in water was sprayed to the foliage of the test plants with three replications over the top by means of a small hand sprayer at a spray volume of 5 liters per are. After cultivation for 3 weeks, herbicidal activity and phytotoxicity were examined.

monochoria = assay: Test Example 7, flooded paddy pot dripping, herbicidal activity; format: in vivo, Monochoria vaginalis; details: 3 weeks; note: ranges in brackets are in %
Experimental: as §1, §2

rice plant = assay: Test Example 7, flooded paddy pot dripping, phytotoxicity to rice plant; format: in vivo; details: 3 weeks; note: ranges in brackets are in %
Experimental: as §1, §2

broad-leaved weed = assay: Test Example 7, flooded paddy pot dripping, herbicidal activity; format: in vivo; details: 3 weeks; note: ranges in brackets are in %
Experimental: as §1, §2

tall morningglory [2] = assay: Test Example 2, field foliar treatment, herbicidal activity; format: in vivo, Ipomoea purpurea; details: 3 weeks; note: ranges in brackets are in %
Experimental: as §1, §3

arrowhead = assay: Test Example 7, flooded paddy pot dripping, herbicidal activity; format: in vivo, Sagittaria pygmaea; details: 3 weeks; note: ranges in brackets are in %
Experimental: as §1, §2

cocklebur = assay: Test Example 2, field foliar treatment, herbicidal activity; format: in vivo, Xanthium pennsylvanicum; details: 3 weeks; note: ranges in brackets are in %
Experimental: as §1, §3

common purslane = assay: as above; format: in vivo, Portulaca oleracea; details: 3 weeks; note: ranges in brackets are in %
Experimental: as §1, §3

barnyardgrass [3] = assay: Test Example 7, flooded paddy pot dripping, herbicidal activity; format: in vivo, Echinochloa crus-galli; details: 3 weeks; note: ranges in brackets are in %
Experimental: as §1, §2

green foxtail [4] = assay: Test Example 5, spraying over the top, herbicidal activity; format: in vivo, Setaria viridis; details: sprayed over the top, 20 days; note: ranges in brackets are in %
Experimental: as §1
(§4) Plastic trays (35 cm×25 cm×15 cm) were filled with upland field soil, and the seeds of tall morningglory, velvetleaf, jimsonweed, sicklepod, hemp sesbania, prickly side, Johnsongrass, green foxtail and large crabgrass and the seeds of soybean were sown therein. A designed amount of the test compound formulated into a wettable powder according to Preparation Example 1 and dispersed in water was sprayed over the top by means of a small hand sprayer at a spray volume of 5 liters per are. After the spraying, the test plants were grown in greenhouse for 20 days, and phytotoxicity and herbicidal activity were examined.

hemp sesbania = assay: as above; format: in vivo, Sesbania exaltator; details: sprayed over the top, 20 days; note: ranges in brackets are in %
Experimental: as §1, §4

prickly sida = assay: as above; format: in vivo, Sida spinosa; details: sprayed over the top, 20 days; note: ranges in brackets are in %
Experimental: as §1, §4

barnyardgrass [5] = assay: Test Example 1, foliar treatment, herbicidal activity; format: in vivo, Echinochloa crus-galli; details: 3 weeks; note: ranges in brackets are in %
Experimental: as §1
(§5) Plastic beakers (diameter, 10 cm; height, 10 cm) were filled with upland field soil, and the seeds of corn, barnyardgrass, wild oat, wild mustard and velvetleaf were separately sown in the beakers and grown for 2 weeks in the greenhouse. A designed amount of the test compound was sprayed to the foliage of the test plants by means of a small hand sprayer. After the spraying, the test plants were further grown for 3 weeks in the greenhouse, and herbicidal activity was examined. In this foliar treatment, the test compounds were formulated into an emulsifiable concentrate according to Preparation Example 2 and applied at a spray volume of 5 liters per are by dispersing it in water with the addition of a spreading agent.

jimsonweed = assay: Test Example 5, spraying over the top, herbicidal activity; format: in vivo, Datura stramonium; details: sprayed over the top, 20 days; note: ranges in brackets are in %
Experimental: as §1, §4

tall morningglory [6] = assay: as above; format: in vivo, Ipomoea purpurea; details: sprayed over the top, 20 days
Experimental: as §1, §4

corn [7] = assay: Test Example 4, pre-emergence treatment, phytotoxicity to corn; format: in vivo; details: 20 days; note: ranges in brackets are in %
Experimental: as §1
(§6) Plastic beakers (diameter, 10 cm; height, 10 cm) were filled with upland field soil, and the seeds of corn, cotton and soybean and the seeds of morningglory, velvetleaf, Johnsongrass and green foxtail were separately sown in the beakers. A designed amount of the test compound was sprayed over the top by means of a small hand sprayer. After the spraying, the test plants were grown for 20 days in the greenhouse, and herbicidal activity and phytotoxicity were examined. In this pre-emergence treatment, the test compounds were formulated into an emulsifiable concentrate according to Preparation Example 2 and applied at a spray volume of 5 liters per are by dispersing it in water with the addition of a spreading agent.

Johnsongrass [8] = assay: Test Example 4, pre-emergence treatment, herbicidal activity; format: in vivo, Sorghum halepense; details: 20 days; note: ranges in brackets are in %
Experimental: as §1, §6

soybean [9] = assay: Test Example 4, pre-emergence treatment, phytotoxicity to soybean; format: in vivo; details: 20 days; note: ranges in brackets are in %
Experimental: as §1, §6

corn [10] = assay: Test Example 1, foliar treatment, phytotoxicity to corn; format: in vivo; details: 3 weeks; note: ranges in brackets are in %
Experimental: as §1, §5

large crabgrass = assay: Test Example 5, spraying over the top, herbicidal activity; format: in vivo, Digitaria sanguinalis; details: sprayed over the top, 20 days; note: ranges in brackets are in %
Experimental: as §1, §4

velvetleaf [11] = assay: Test Example 1, foliar treatment, herbicidal activity; format: in vivo, Abutilon theophrasti; details: 3 weeks; note: ranges in brackets are in %
Experimental: as §1, §5

cotton = assay: Test Example 4, pre-emergence treatment, phytotoxicity to cotton; format: in vivo; details: 2.5 g/are, 20 days; note: ranges in brackets are in %
Experimental: as §1, §6

wild mustard = assay: Test Example 1, foliar treatment, herbicidal activity; format: in vivo, Brassica kaber; details: 3 weeks
Experimental: as §1, §5

sicklepod = assay: Test Example 5, spraying over the top, herbicidal activity; format: in vivo, Cassia obtusifolia; details: sprayed over the top, 20 days; note: ranges in brackets are in %
Experimental: as §1, §4

morningglory = assay: Test Example 4, pre-emergence treatment, herbicidal activity; format: in vivo; details: 10 g/are, 20 days; note: ranges in brackets are in %
Experimental: as §1, §6

velvetleaf [12] = assay: as above; format: in vivo, Abutilon theophrasti; details: 20 days
Experimental: as §1, §6

soybean [13] = assay: Test Example 5, spraying over the top, phytotoxicity to soybean; format: in vivo; details: sprayed over the top, 20 days; note: ranges in brackets are in %
Experimental: as §1, §4

Johnsongrass [14] = assay: Test Example 5, spraying over the top, herbicidal activity; format: in vivo, Sorghum halepense; details: sprayed over the top, 20 days; note: ranges in brackets are in %
Experimental: as §1, §4

wild oat = assay: Test Example 1, foliar treatment, herbicidal activity; format: in vivo, Avena fatua; details: 3 weeks; note: ranges in brackets are in %
Experimental: as §1, §5

velvetleaf [15] = assay: Test Example 5, spraying over the top, herbicidal activity; format: in vivo, Abutilon theophrasti; details: sprayed over the top, 20 days; note: ranges in brackets are in %
Experimental: as §1, §4

green foxtail [16] = assay: Test Example 4, pre-emergence treatment, herbicidal activity; format: in vivo, Setaria viridis; details: 20 days; note: ranges in brackets are in %
Experimental: as §1, §6
Throughout, for Herbicidal activity, Tall morningglory: ranges in brackets are in %.
Throughout, for Herbicidal activity, Velvetleaf: ranges in brackets are in %.

SMILES: CCCCCOc1cc(N2C(=O)C3=C(CCCC3)C2=O)c(F)cc1Cl [Compound No. 7, N-(4-chloro-2-fluoro-5-n-amyloxyphenyl)-3,4,5,6-terahydrophthalimide]
- Herbicidal activity, Slender spikerush (slender spikerush; 1.25 g/are): 4 (70-89)
- Herbicidal activity, Slender spikerush (slender spikerush; 2.5 g/are): 5 (90-100)
- Herbicidal activity, Slender spikerush (slender spikerush; 5 g/are): 5 (90-100)
- Phytotoxicity, Corn (corn [1]; 0.16 g/are): 0 (100)
- Phytotoxicity, Corn (corn [1]; 0.32 g/are): 0 (100)
- Phytotoxicity, Corn (corn [1]; 0.63 g/are): 0 (100)
- Herbicidal activity, Monochoria (monochoria; 1.25 g/are): 5 (90-100)
- Herbicidal activity, Monochoria (monochoria; 2.5 g/are): 5 (90-100)
- Herbicidal activity, Monochoria (monochoria; 5 g/are): 5 (90-100)
- Phytotoxicity, Rice plant (rice plant; 1.25 g/are): 0 (0-9)
- Phytotoxicity, Rice plant (rice plant; 2.5 g/are): 0 (0-9)
- Phytotoxicity, Rice plant (rice plant; 5 g/are): 0 (0-9)
- Herbicidal activity, Broad-leaved weed (broad-leaved weed; 1.25 g/are): 5 (90-100)
- Herbicidal activity, Broad-leaved weed (broad-leaved weed; 2.5 g/are): 5 (90-100)
- Herbicidal activity, Broad-leaved weed (broad-leaved weed; 5 g/are): 5 (90-100)
- Herbicidal activity, Tall morningglory (tall morningglory [2]; 0.16 g/are): 2 (21-40)
- Herbicidal activity, Tall morningglory (tall morningglory [2]; 0.32 g/are): 3 (11-20)
- Herbicidal activity, Tall morningglory (tall morningglory [2]; 0.63 g/are): 4 (1-10)
- Herbicidal activity, Allowhead (arrowhead; 1.25 g/are): 3 (50-69)
- Herbicidal activity, Allowhead (arrowhead; 2.5 g/are): 4 (70-89)
- Herbicidal activity, Allowhead (arrowhead; 5 g/are): 5 (90-100)
- Herbicidal activity, Cocklebur (cocklebur; 0.16 g/are): 4 (1-10)
- Herbicidal activity, Cocklebur (cocklebur; 0.32 g/are): 4 (1-10)
- Herbicidal activity, Cocklebur (cocklebur; 0.63 g/are): 5 (0)
- Herbicidal activity, Common purslane (common purslane; 0.16 g/are): 5 (0)
- Herbicidal activity, Common purslane (common purslane; 0.32 g/are): 5 (0)
- Herbicidal activity, Common purslane (common purslane; 0.63 g/are): 5 (0)
- Herbicidal activity, Barnyardgrass (barnyardgrass [3]; 1.25 g/are): 4 (70-89)
- Herbicidal activity, Barnyardgrass (barnyardgrass [3]; 2.5 g/are): 5 (90-100)
- Herbicidal activity, Barnyardgrass (barnyardgrass [3]; 5 g/are): 5 (90-100)

SMILES: COc1cc(N2C(=O)C3=C(CCCC3)C2=O)c(F)cc1Br [Compound No. 12, N-(4-bromo-2-fluoro-5-methoxyphenyl)-3,4,5,6-tetrahydrophthalimide]
- Herbicidal activity, Green foxtail (green foxtail [4]; 3 g/are): 5 (0)
- Herbicidal activity, Green foxtail (green foxtail [4]; 9 g/are): 5 (0)
- Herbicidal activity, Hemp sesbania (hemp sesbania; 3 g/are): 4 (1-10)
- Herbicidal activity, Hemp sesbania (hemp sesbania; 9 g/are): 5 (0)
- Herbicidal activity, Prickly sida (prickly sida; 3 g/are): 5 (0)
- Herbicidal activity, Prickly sida (prickly sida; 9 g/are): 5 (0)
- Herbicidal activity, Barnyardgrass (barnyardgrass [5]; 1.25 g/are): 2 (21-40)
- Herbicidal activity, Barnyardgrass (barnyardgrass [5]; 5 g/are): 5 (0)
- Herbicidal activity, Jimsonweed (jimsonweed; 3 g/are): 5 (0)
- Herbicidal activity, Jimsonweed (jimsonweed; 9 g/are): 5 (0)
- Herbicidal activity, Tall morningglory (tall morningglory [6]; 3 g/are): 4 (1-10)
- Herbicidal activity, Tall morningglory (tall morningglory [6]; 9 g/are): 5 (0)
- Phytotoxicity, Corn (corn [7]; 2.5 g/are): 0 (100)
- Phytotoxicity, Corn (corn [7]; 10 g/are): 1 (90-99)
- Herbicidal activity, Johnsongrass (Johnsongrass [8]; 2.5 g/are): 5 (0)
- Herbicidal activity, Johnsongrass (Johnsongrass [8]; 10 g/are): 5 (0)
- Phytotoxicity, Soybean (soybean [9]; 2.5 g/are): 0 (100)
- Phytotoxicity, Soybean (soybean [9]; 10 g/are): 0 (100)
- Phytotoxicity, Corn (corn [10]; 1.25 g/are): 1 (90-99)
- Phytotoxicity, Corn (corn [10]; 5 g/are): 1 (90-99)
- Herbicidal activity, Large crabgrass (large crabgrass; 3 g/are): 5 (0)
- Herbicidal activity, Large crabgrass (large crabgrass; 9 g/are): 5 (0)
- Herbicidal activity, Velvetleaf (velvetleaf [11]; 1.25 g/are): 5 (0)
- Herbicidal activity, Velvetleaf (velvetleaf [11]; 5 g/are): 5 (0)
- Phytotoxicity, Cotton (cotton): 0 (100)
- Herbicidal activity, Wild mustard (wild mustard; 1.25 g/are): 4 (1-10)
- Herbicidal activity, Wild mustard (wild mustard; 5 g/are): 5 (0)
- Herbicidal activity, Sicklepod (sicklepod; 3 g/are): 4 (1-10)
- Herbicidal activity, Sicklepod (sicklepod; 9 g/are): 5 (0)
- Herbicidal activity, Morningglory (morningglory): 5 (0)
- Herbicidal activity, Velvetleaf (velvetleaf [12]; 2.5 g/are): 5 (0)
- Herbicidal activity, Velvetleaf (velvetleaf [12]; 10 g/are): 5 (0)
- Phytotoxicity, Soybean (soybean [13]; 3 g/are): 0 (100)
- Phytotoxicity, Soybean (soybean [13]; 9 g/are): 0 (100)
- Herbicidal activity, Johnsongrass (Johnsongrass [14]; 3 g/are): 5 (0)
- Herbicidal activity, Johnsongrass (Johnsongrass [14]; 9 g/are): 5 (0)
- Herbicidal activity, Wild cat (wild oat; 1.25 g/are): 1 (41-60)
- Herbicidal activity, Wild cat (wild oat; 5 g/are): 5 (0)
- Herbicidal activity, Velvetleaf (velvetleaf [15]; 3 g/are): 5 (0)
- Herbicidal activity, Velvetleaf (velvetleaf [15]; 9 g/are): 5 (0)
- Herbicidal activity, Green foxtail (green foxtail [16]; 2.5 g/are): 5 (0)
- Herbicidal activity, Green foxtail (green foxtail [16]; 10 g/are): 5 (0)
